For data set [1], the target named is T1, rat liver type F6P2kinase (Rattus norvegicus, UniProt P07953).
T1 construct: made in house; host or cells: Escherichia coli
Description: Inhibition by itaconic acid of F6P2kinase activity catalyzing synthesis of F26BP. The data set is classed as biochemical. The following applies: 0.5 mM itaconic acid; 0.4 mM F6P, 2 mM ATP, 30° C.; read-out: inhibitory activity on F6P2kinase. The procedure:
The gene for rat liver type F6P2kinase was incorporated into Escherichia coli and expressed. From the E. coli cells, rat liver type F6P2kinase was purified (K. Kitamura et al., J. Biol. Chem., Vol. 264, 9799-9806, 1989). The rat liver type F6P2kinase (1.25 μg) was reacted at 30° C. in a reaction solution containing 100 mM Tris-HCl (pH 7.5), 0.1 mM EDTA, 10 mM MgCl2, 2 mM ATP, 0.4 mM F6P, and 0 to 1.5 mM itaconic acid. After lapses of 2, 4 and 6 minutes, 10 μl of the reaction mixture was transferred into a test tube containing 90 μl of 50 mM NaOH, and heated for 1 minute at 90° C. to terminate the reaction. The amount of the resulting F26BP was measured by a change in absorbance due to oxidation of NADH upon subsequent addition of glycolytic pathway enzymes. That is, 10 μl of the reaction mixture after termination of the reaction was added to 1 ml of a reaction solution containing 50 mM HEPES (pH 7.3), 0.2 mM EDTA, 5 mM MgCl2, 1 mM F6P, 1 mM PPi, 15 mU PPi-F6P phosphotransferase, 0.15 mM NADH, 1 U aldolase, 1 U glycerol-3-phosphate dehydrogenase, and 10 U triose-phosphate isomerase. The amount of F26BP was measured by a decrease in the absorbance at 340 nm (Van Schaftingen et al., Eur. J. Biochem., Vol. 129, 191-195, 1982). The activity that converts the substrate F6P to 1 μmole F26BP over 1 minute at 30° C. is defined as 1 U. The results are shown in FIG. 1.

The subject of data set [2] is Male SD rats. Description: Evaluation of preventive effect on obesity in rats (3 weeks, itaconic acid in drinking water). Type of data set: in vivo, rat. The procedure: Male SD rats (8-week-old) were individually reared, commencing immediately after arrival. After a week of acclimatization, the animals were divided into a control group and an itaconic acid group (8 animals per group), and reared for 3 weeks, with feed and drinking water of the itaconic acid concentration shown in [Table 1] being given ad lib.
During the 3-week rearing period, the body weight, the feed intake, and the water intake were measured daily or every other day. On the final day, the animal was placed on a 17-hour fast, the blood was sampled, and the plasma was analyzed for blood glucose, hepatic function, and lipid-related parameters. Furthermore, the weight of the livers, kidneys, fat around the kidneys, and fat around the intestines was measured. The experiments were conducted in groups of 8 rats each, and the results were indicated as mean values±standard deviations. The test for a significant difference was performed by the analysis of variance of data, followed by Student t-test. The level of significance was set at 0.05.
The plasma collected at completion of the experiments was measured for various biological parameters. […] The experiments were conducted in groups of 8 rats each, and the results were indicated as mean values±standard deviations. The test for a significant difference was performed by the analysis of variance of data, followed by Student t-test. The level of significance was set at 0.05.

Data set [3] relates to Male SD rats. Description: Evaluation of the suppressive effect on blood glucose elevation in rats (glucose challenge). The data set is classed as in vivo, rat. The procedure:
Male SD rats (weighing 300 to 400 g), operated on for blood sampling cannulation into the femoral artery, were used. After an overnight fast, itaconic acid (500 mg/kg) was orally administered. Thirty minutes later, glucose (4 g/kg) was ingested, and changes in blood glucose were observed. In the control group, purified water, free of itaconic acid, was orally administered in the same volume. Experiments were conducted in groups of 4 rats each, and the results were indicated as mean values±standard deviations. The test for a significant difference was performed by the analysis of variance of data, followed by Student t-test. Differences were taken as significant when p values were less than 0.05 (*p<0.05, **p<0.01).

The subject of data set [4] is streptozotocin-induced diabetes rats (male Wistar rats). Description: Evaluation of suppressive effect on blood glucose elevation in streptozotocin-induced diabetes rats. The data set is classed as in vivo, rat. The text has this:
Streptozotocin is an antibiotic derived from Streptomyces achromogenes, one of […]. Its action of inducing insulin-dependent diabetes mellitus was reported for the first time in 1963 by Rakieten et al. (Rakieten N, Rakieten M L, Nadkarni M V, Cancer Chemother Rep 29:91-98, 1963). Since then, it has been used most commonly as a substance for inducing diabetes experimentally. The main mechanism of its diabetogenic action is ascribed to the destruction of P cells of the pancreas, thereby suppressing insulin secretion. In male Wistar rats (7-week-old), a solution of streptozotocin in 0.05 M citric acid-0.145 […] NaCl (pH 4.5) was administered into the caudal vein (50 mg/kg). The animals were individually reared, commencing immediately after administration of streptozotocin. After a lapse of 48 hours, the animals with blood glucose levels of 300 mg/dl or more were divided into a control group and an itaconic acid group (7 or 8 animals per group), and study was initiated. A rearing feed was given to the control group, and a rearing feed containing 1.38% of itaconic acid was given to the itaconic acid group, ad. lib. together with drinking water, and the animals were reared for 3 weeks.
During the 3-week rearing period, blood glucose, body weight, feed intake, and water intake were measured twice or 3 times weekly. Rats are nocturnal animals, and feeding mostly takes place at night. However, since their blood glucose fluctuates greatly depending on the elapsed time after eating, each measurement of blood glucose was made between 9:30 and 10:00 in the morning. Blood hemoglobin Alc was measured on the day after administration of streptozotocin and on the 19th day after start of the study. Hemoglobin Alc is hemoglobin having glucose attached thereto non-enzymatically, and is expressed as a percentage (%) of total hemoglobin. In humans, hemoglobin Alc is known to serve as an indicator of the mean value of blood glucose during the period from 1 to 3 months previously until blood sampling. In rats, the life of an erythrocyte is about half of that in humans, and hemoglobin Alc has been reported to reflect the mean value of blood glucose since 2 to 3 weeks previously.
The experiments were conducted in groups of 7 or 8 rats each, and the results were indicated as mean values±standard deviations. The blood glucose was expressed as changes in individual animals compared with the value found at the start of the study (grouping). The test for a significant difference was performed by the analysis of variance of data, followed by Student t-test. The level of significance was set at 0.05.

The conditions of data set [5]: animal studies and clinical trials; cited from earlier work.
[6] abbreviates: at completion of 3 weeks, FIG. 5.
The mark [7] stands for this setting: at completion of 3 weeks, p<0.05, FIG. 5.
The mark [8] stands for this setting: plasma after 3 weeks, 17-hour fast, mean ± SD, n=8.
Setting [9] is: plasma after 3 weeks, 17-hour fast, mean ± SD, n=8, P < 0.05 vs control.

T1 sequence (P07953 whole entry): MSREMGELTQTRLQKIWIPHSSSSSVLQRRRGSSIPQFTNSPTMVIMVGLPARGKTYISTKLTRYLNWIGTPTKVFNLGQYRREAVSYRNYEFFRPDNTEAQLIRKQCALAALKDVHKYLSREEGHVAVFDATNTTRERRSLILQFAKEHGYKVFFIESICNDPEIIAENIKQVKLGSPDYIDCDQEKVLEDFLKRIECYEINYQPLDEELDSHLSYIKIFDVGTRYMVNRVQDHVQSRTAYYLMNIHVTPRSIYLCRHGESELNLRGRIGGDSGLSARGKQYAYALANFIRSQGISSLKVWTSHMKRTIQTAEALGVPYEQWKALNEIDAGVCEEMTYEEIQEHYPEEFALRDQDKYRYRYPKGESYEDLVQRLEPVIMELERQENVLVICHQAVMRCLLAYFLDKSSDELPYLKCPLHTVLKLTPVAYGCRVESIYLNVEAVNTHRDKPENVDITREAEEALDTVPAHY

On to `C=C(CC(=O)O)C(=O)O` [itaconic acid], for which the inhibition at 500 µM in data set [1] is around 30%. Besides, in data set [2] (3-week period, compared with the control group, FIG. 3), the feed intake entry was “decreases in the feed intake were observed”. Further, in data set [2] (setting [6]), the “weight of the kidneys per 100 g of body weight” value was “not different between the groups” and the “weight of the livers per 100 g of body weight” value is “not different between the groups”. In data set [2] (setting [7]), the “weight of fat around the intestines per 100 g of body weight” value is “significantly decreased” and the “weight of fat around the kidneys per 100 g of body weight” value is on record as “significantly decreased”. Further, the weight gain entry in data set [2] (from Day 9 onwards, p<0.05 against the control group, FIG. 2) is on record as “significant suppression of weight gain”. Besides, in data set [2] (setting [8]), the ALP stood at 0.3 ± 0.1 IU/l, the Free cholesterol is 12.2 ± 2.0 mg/dL, the GOT stood at 65.0 ± 12.0 IU/l and the GPT came to 13.0 ± 2.5 IU/l. Besides, in data set [2] (setting [8]), the LDH is 276 ± 82 IU/l, the Total bilirubin was found to be 0.19 ± 0.02 mg/dL and the Total cholesterol came out at 46.3 ± 7.1 mg/dL. This compound also displayed a Triglycerides in data set [2] (plasma after 3 weeks, 17-hour fast, mean ± SD, n=8, P < 0.01 vs control) of 20.9 ± 2.8 mg/dL. Moreover, in data set [2] (setting [9]), the Blood glucose came to 149 ± 19 mg/dL and the Free fatty acids stood at 199 ± 75 mg/dL. Further, in data set [3] (itaconic acid 500 mg/kg orally 30 min before glucose 4 g/kg, 30 minutes after challenge, FIG. 6), the “initial rapid increase in blood glucose after glucose challenge” value is given as “significantly curbed”. In data set [3] (itaconic acid 500 mg/kg orally, after 180 minutes and 240 minutes, versus control group), the “blood glucose late after glucose challenge” value is “significantly high”. For the same compound, the “rise in blood hemoglobin Alc” value in data set [4] (Day 19, compared with the control group, FIG. 11) was “significant curbing of the rise”. Also, in data set [4] (feed containing 1.38% itaconic acid, 3 weeks, FIG. 8), the body weight entry is on record as “not different between the groups”. Further, in data set [4] (feed containing 1.38% itaconic acid, 3 weeks, from Day 1 onwards, p<0.05 on Days 5 and 15, FIG. 7), the “rise in blood glucose (change from start of study)” value was “suppression of the rise in blood glucose was observed”. Also, the feed intake result in data set [4] (from about Day 5 onwards, compared with the control group, FIG. 9) is recorded as “decreases in feed intake were observed”.

In the case of `OCC(CO)N[C@H]1C[C@](O)(CO)[C@@H](O)[C@H](O)[C@H]1O` [voglibose], in data set [5], the “rapid increases (peaks) in postprandial blood glucose” value is given as “suppressing rapid increases (peaks) in postprandial blood glucose”.
